Laboratory results: publication PMC11097166, “Imidazole-Derived Alkyl and Aryl Ethers: Synthesis, Characterization, In Vitro Anticancer and Antioxidant Activities, Carbonic Anhydrase I–II Inhibition Properties, and In Silico Studies” (ACS Omega, 2024)
Like-named read-outs stand apart in the source and are kept apart here. One block for each compound: values may come before it.

Key:
[1] = system: C6 rat glial tumor cell line; experiment: MTT cell viability assay on C6; type: cell-based; conditions: 24 h incubation
Description: (§1) 96-well plates were used for seeding cells. […] All compounds were run in three repetitions.

[2] = system: HT29 colon cancer cell line; experiment: MTT cell viability assay on HT29; type: cell-based, human
Description: as §1

[3] = system: MCF7 human breast adenocarcinoma cell line; experiment: MTT cell viability assay on MCF7; type: cell-based
Description: as §1

[4] = system: L929 healthy mouse fibroblast cells; experiment: Annexin V binding assay (flow cytometry) on L929; type: cell-based; conditions: L929, IC50 dose of the compound for the cancer cell line, 24 h
Experimental: (§2) Approximately 5 × 10^5 seeds of each cancer cell were seeded into six-well plates and allowed to adhere overnight. […] Cells harvested after trypsinization were suspended in PBS containing at least 1% FBS. The manufacturer’s instructions were then followed, and the Annexin V and dead cell reagent were mixed with the cells. Afterward, the percentage of dead, viable, early and late apoptotic cells was determined using the muse cell analyzer (Millipore) device.

HT29 cell line [5] = experiment: Annexin V binding assay (flow cytometry) on HT29; type: cell-based, human; conditions: HT29, IC50 dose, 24 h
Experimental: as §2

HT29 cell line [6] = experiment: Cell cycle (DNA content) assay on HT29; type: cell-based, human; conditions: colon cancer (HT29), IC50 dose
Experimental: (§3) DNA content (cell cycle) analyses were performed with the MUSE flow cytometry device. When the IC50 results obtained were evaluated, compounds 3a and 3b caused selective toxicity in the HT29 and C6 cancer cell lines compared to L929, respectively. Therefore, the main pathways of compounds 3a and 3b in cells were determined with the MUSE (cell cycle) kit.

FRAP antioxidant assay = conditions: trolox standard curve
Experimental: The FRAP method was used to determine the antioxidant power of compounds. This method, which determines the reducing power of compounds, was developed by Benzie and Strain.[48] Fe(III)–TPTZ complex is formed as a result of the reaction of Fe(III) with tripyridyltriazine (TPTZ), and this complex is reduced to the Fe(II)–TPTZ complex with the antioxidant in the environment. The color of this complex is dark blue and gives the maximum absorbance at 593 nm.[48] Incubation is performed for up to 30 min to complete the reaction, and the correct absorbance values were read. The FRAP values of the samples were calculated as “μmol trolox equiv/g sample” with the help of the standard curve obtained using methanol–trolox standard solutions (0; 0.2; 0.4; 0.6; 0.8; and 1.0 μmol/mL) which were used as the positive control.[49] […]

hCA I = hCA I (Homo sapiens, UniProt P00915); experiment: CA esterase activity method, hCA I; type: biochemical; conditions: for Effect on hCA I isoenzyme activity: Table S3; for IC50: esterase activity, p-nitrophenyl acetate substrate
hCA I, sequence (P00915 whole entry): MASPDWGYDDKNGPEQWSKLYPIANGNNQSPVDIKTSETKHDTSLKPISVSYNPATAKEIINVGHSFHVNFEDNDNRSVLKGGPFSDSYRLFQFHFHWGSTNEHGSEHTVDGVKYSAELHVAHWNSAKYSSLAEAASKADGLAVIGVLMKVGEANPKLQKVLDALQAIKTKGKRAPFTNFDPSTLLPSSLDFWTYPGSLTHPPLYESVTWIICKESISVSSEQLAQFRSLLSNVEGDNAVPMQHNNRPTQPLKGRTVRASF
Description: (§4) The method used to spectrophotometrically detect the antiepileptic, antiglaucoma, and […] effects of the obtained compounds in vitro is the esterase activity method. This method relies on the esterase activity of CA for the hydrolysis of p-nitrophenyl acetate as a substrate, which is a part of the reaction mechanism involving p-nitrophenol or p-nitrophenolate.

hCA II = hCA II (Homo sapiens, UniProt P00918); experiment: CA esterase activity method, hCA II; type: biochemical; conditions: for Effect on hCA II isoenzyme activity: Table S3; for IC50: esterase activity, p-nitrophenyl acetate substrate
Description: as §4

[7] = MTT cell viability assay on L929; conditions: mouse, L929 fibroblast cells
Experimental: (§5) Human breast adenocarcinoma cell line (MCF7), rat glial tumor cell line (C6), healthy mouse fibroblast cell line (L929), and colon cancer (HT29) cell line were purchased from ATCC (American type culture collection) and studied.
(§6) The cytotoxic effects of all compounds by MTT analysis on L929, HT29, MCF7, and C6 cell lines were investigated. 96-well plates were used for seeding cells. Approximately 1 × 10^4 cells were seeded in each well. Cells were allowed to adhere for 24 h, and then the compounds were applied at different concentrations. All compounds were run in three repetitions. Wells with a maximum of 100 μM compounds were incubated for 24 h. Three wells without compounds treated with only DMSO (with total volume of % 0.5) were used as negative controls, and cisplatin was used as a positive control. […] After the MTT interaction, the FRAP wells were emptied, and DMSO solution was placed in them. The formazan crystals formed were dissolved with this solution, and the number of viable cells in each well was determined by color change.

[8] = system: L929 mouse fibroblast cell line; experiment: MTT cell viability assay on L929; conditions: for toxicity in L929 healthy cell line: 100 μM, 24 h, triplicate; for IC50: read-out: IC50 L929
Experimental: as §5, §6

C6 cell line [9] = experiment: Annexin V binding assay (flow cytometry) on C6; type: cell-based, rat; conditions: C6, IC50 dose, 24 h
Experimental: as §2

C6 cell line [10] = experiment: Cell cycle (DNA content) assay on C6; type: cell-based, rat; conditions: glioblastoma (C6), IC50 dose
Experimental: as §3

[11] = Homo sapiens, HT-29, 24 h incubation
[12] = Homo sapiens, MCF7, 24 h incubation

IC50 ([1]; Rattus norvegicus, 24 h): 15.76 ± 0.08 µM
IC50 [2, 11]: 20.9 ± 1.02 µM
IC50 [3, 12]: 161 ± 15.5 µM
Effect on hCA I isoenzyme activity (hCA I): -
Effect on hCA II isoenzyme activity (hCA II): -
Compound: O=C(Cn1ccnc1)c1ccccc1 [Compound 3a, 2-(1H-Imidazol-1-yl)-1-phenylethanone]
Apoptosis profile: Live [4]: 98.37%
Apoptosis profile: Early Apop. (HT29 cell line [5]): 7.83%
Apoptosis profile: Late Apop./Dead (HT29 cell line [5]): 22.56%
Apoptosis profile: Live (HT29 cell line [5]): 60.77%
phase in which the cell cycle stopped (HT29 cell line [6]): G0/G1 phase
FRAP (FRAP antioxidant assay): 0.18 ± 0.07 μmol trolox equiv/g
viability at 24 h, 100 μM [7]: ≥ 50%
toxicity in L929 healthy cell line ([8]; MTT): not toxic
IC50 ([8]; Mus musculus, L929, 24 h): 174 ± 10.1 µM

IC50 [1]: 10.7 ± 0.38 µM
IC50 ([1]; Rattus norvegicus, 24 h): 10.7 ± 0.38 µM
IC50 [2, 11]: 59.6 ± 5.73 µM
IC50 [3, 12]: 117 ± 14.5 µM
Effect on hCA I isoenzyme activity (hCA I): -
Effect on hCA II isoenzyme activity (hCA II): -
Compound: O=C(Cn1ccnc1)c1ccc(Cl)cc1 [Compound 3b, 1-(4-Chlorophenyl)-2-(1H-imidazol-1-yl)ethanone]
Apoptosis profile: Live [4]: 99.17%
Apoptosis profile: Early Apop. (C6 cell line [9]): 14.96%
Apoptosis profile: Late Apop./Dead (C6 cell line [9]): 18.33%
Apoptosis profile: Live (C6 cell line [9]): 65.46%
phase in which the cell cycle stopped (C6 cell line [10]): G0/G1 phase
FRAP (FRAP antioxidant assay): 0.20 ± 0.04 μmol trolox equiv/g
viability at 24 h, 100 μM [7]: ≥ 50%
toxicity in L929 healthy cell line ([8]; MTT): not toxic
IC50 ([8]; Mus musculus, L929, 24 h): 138 ± 4.06 µM

Effect on hCA I isoenzyme activity (hCA I): -
Effect on hCA II isoenzyme activity (hCA II): -
Compound: COc1ccc(C(=O)Cn2ccnc2)cc1 [Compound 3c, 2-(1H-Imidazol-1-yl)-1-(4-methoxyphenyl)ethanone]
FRAP (FRAP antioxidant assay): 0.21 ± 0.03 μmol trolox equiv/g

IC50 ([1]; Rattus norvegicus, 24 h): 35.2 ± 0.55 µM
IC50 [2, 11]: 74.6 ± 6.67 µM
IC50 [3, 12]: 104 ± 15.3 µM
Effect on hCA I isoenzyme activity (hCA I): +
Effect on hCA II isoenzyme activity (hCA II): +
Compound: OC(Cn1ccnc1)c1ccccc1 (stereo not drawn) [Compound 4a, 2-(1H-Imidazol-1-yl)-1-phenylethanol]
FRAP (FRAP antioxidant assay): 0.31 ± 0.01 μmol trolox equiv/g
viability at 24 h, 100 μM [7]: ≥ 50%
toxicity in L929 healthy cell line ([8]; MTT): not toxic
IC50 ([8]; Mus musculus, L929, 24 h): 166 ± 11.9 µM

IC50 ([1]; Rattus norvegicus, 24 h): 20.1 ± 0.32 µM
IC50 [2, 11]: 44.1 ± 4.27 µM
IC50 [3, 12]: 84.9 ± 21.5 µM
Effect on hCA I isoenzyme activity (hCA I): +
Effect on hCA II isoenzyme activity (hCA II): +
Compound: OC(Cn1ccnc1)c1ccc(Cl)cc1 (stereo not drawn) [Compound 4b, 1-(4-Chlorophenyl)-2-(1H-imidazol-1-yl)ethanol]
FRAP (FRAP antioxidant assay): 0.25 ± 0.02 μmol trolox equiv/g
viability at 24 h, 100 μM [7]: ≥ 50%
toxicity in L929 healthy cell line ([8]; MTT): not toxic
IC50 ([8]; Mus musculus, L929, 24 h): 105 ± 10.1 µM

IC50 ([1]; Rattus norvegicus, 24 h): 26.1 ± 5.7 µM
IC50 [2, 11]: 102 ± 11.5 µM
IC50 [3, 12]: 122 ± 28.8 µM
Effect on hCA I isoenzyme activity (hCA I): +
Effect on hCA II isoenzyme activity (hCA II): +
Compound: CCOC(Cn1ccnc1)c1ccccc1 (stereo not drawn) [Compound 7, 1-(2-Ethoxy-2-phenylethyl)-1H-imidazole]
FRAP (FRAP antioxidant assay): 0.10 ± 0.08 μmol trolox equiv/g
viability at 24 h, 100 μM [7]: ≥ 50%
toxicity in L929 healthy cell line ([8]; MTT): not toxic
IC50 ([8]; Mus musculus, L929, 24 h): 173 ± 16.6 µM

Effect on hCA I isoenzyme activity (hCA I): +
Effect on hCA II isoenzyme activity (hCA II): +
Compound: CCCOC(Cn1ccnc1)c1ccccc1 (stereo not drawn) [Compound 8, 1-(2-Phenyl-2-propoxyethyl)-1H-imidazole]
FRAP (FRAP antioxidant assay): 0.19 ± 0.02 μmol trolox equiv/g

Effect on hCA I isoenzyme activity (hCA I): +
Effect on hCA II isoenzyme activity (hCA II): +
Compound: C=CCOC(Cn1ccnc1)c1ccccc1 (stereo not drawn) [Compound 9, 1-(2-(Allyloxy)-2-phenylethyl)-1H-imidazole]
FRAP (FRAP antioxidant assay): 0.12 ± 0.01 μmol trolox equiv/g

Effect on hCA I isoenzyme activity (hCA I): +
Effect on hCA II isoenzyme activity (hCA II): +
Compound: CCOC(Cn1ccnc1)c1ccc(Cl)cc1 (stereo not drawn) [Compound 10, 1-(2-(4-Chlorophenyl)-2-ethoxyethyl)-1H-imidazole]
FRAP (FRAP antioxidant assay): 0.20 ± 0.03 μmol trolox equiv/g

Effect on hCA I isoenzyme activity (hCA I): +
Effect on hCA II isoenzyme activity (hCA II): +
Compound: CCCOC(Cn1ccnc1)c1ccc(Cl)cc1 (stereo not drawn) [Compound 11, 1-(2-(4-Chlorophenyl)-2-propoxyethyl)-1H-imidazole]
FRAP (FRAP antioxidant assay): 0.31 ± 0.07 μmol trolox equiv/g

Effect on hCA I isoenzyme activity (hCA I): +
Effect on hCA II isoenzyme activity (hCA II): +
Compound: C=CCOC(Cn1ccnc1)c1ccc(Cl)cc1 (stereo not drawn) [Compound 12, 1-(2-(Allyloxy)-2-(4-chlorophenyl)ethyl)-1H-imidazole]
FRAP (FRAP antioxidant assay): 0.28 ± 0.04 μmol trolox equiv/g

Effect on hCA I isoenzyme activity (hCA I): +
Effect on hCA II isoenzyme activity (hCA II): +
Compound: CCOC(Cn1ccnc1)c1ccc(OC)cc1 (stereo not drawn) [Compound 13, 1-(2-Ethoxy-2-(4-methoxyphenyl)ethyl)-1H-imidazole]
FRAP (FRAP antioxidant assay): 0.15 ± 0.06 μmol trolox equiv/g

Effect on hCA I isoenzyme activity (hCA I): +
Effect on hCA II isoenzyme activity (hCA II): +
Compound: CCCOC(Cn1ccnc1)c1ccc(OC)cc1 (stereo not drawn) [Compound 14, 1-(2-(4-Methoxyphenyl)-2-propoxyethyl)-1H-imidazole]
FRAP (FRAP antioxidant assay): 0.28 ± 0.01 μmol trolox equiv/g

Effect on hCA I isoenzyme activity (hCA I): +
Effect on hCA II isoenzyme activity (hCA II): +
Compound: C=CCOC(Cn1ccnc1)c1ccc(OC)cc1 (stereo not drawn) [Compound 15, 1-(2-(Allyloxy)-2-(4-methoxyphenyl)ethyl)-1H-imidazole]
FRAP (FRAP antioxidant assay): 0.31 ± 0.03 μmol trolox equiv/g

Effect on hCA I isoenzyme activity (hCA I): +
Effect on hCA II isoenzyme activity (hCA II): +
Compound: c1ccc(COC(Cn2ccnc2)c2ccccc2)cc1 (stereo not drawn) [Compound 16, 1-(2-(Benzyloxy)-2-phenylethyl)-1H-imidazole]
FRAP (FRAP antioxidant assay): 0.41 ± 0.03 μmol trolox equiv/g

IC50 (hCA I): 0.0132 µM
IC50 (hCA II): 0.0148 µM
Compound: Clc1ccc(COC(Cn2ccnc2)c2ccccc2)cc1 (stereo not drawn) [Compound 17, 1-(2-((4-Chlorobenzyl)oxy)-2-phenylethyl)-1H-imidazole]
FRAP (FRAP antioxidant assay): 0.35 ± 0.07 μmol trolox equiv/g

Effect on hCA I isoenzyme activity (hCA I): +
Effect on hCA II isoenzyme activity (hCA II): +
Compound: Cc1ccc(COC(Cn2ccnc2)c2ccccc2)cc1 (stereo not drawn) [Compound 18, 1-(2-((4-Methylbenzyl)oxy)-2-phenylethyl)-1H-imidazole]
FRAP (FRAP antioxidant assay): 0.30 ± 0.04 μmol trolox equiv/g

IC50 (hCA I): 0.0157 µM
IC50 (hCA II): 0.0117 µM
Compound: Clc1ccc(C(Cn2ccnc2)OCc2ccccc2)cc1 (stereo not drawn) [Compound 19, 1-(2-(Benzyloxy)-2-(4-chlorophenyl)ethyl)-1H-imidazole]
FRAP (FRAP antioxidant assay): 0.27 ± 0.01 μmol trolox equiv/g

IC50 (hCA I): 0.00413 µM
IC50 (hCA II): 0.0109 µM
Compound: Clc1ccc(COC(Cn2ccnc2)c2ccc(Cl)cc2)cc1 (stereo not drawn) [Compound 20, 1-(2-((4-Chlorobenzyl)oxy)-2-(4-chlorophenyl)ethyl)-1H-imidazole]
FRAP (FRAP antioxidant assay): 0.31 ± 0.06 μmol trolox equiv/g

IC50 (hCA I): 0.00983 µM
IC50 (hCA II): 0.0079 µM
Compound: Cc1ccc(COC(Cn2ccnc2)c2ccc(Cl)cc2)cc1 (stereo not drawn) [Compound 21, 1-(2-(4-Chlorophenyl)-2-((4-methylbenzyl)oxy)ethyl)-1H-imidazole]
FRAP (FRAP antioxidant assay): 0.25 ± 0.01 μmol trolox equiv/g

Compound: COc1ccc(C(Cn2ccnc2)OCc2ccccc2)cc1 (stereo not drawn) [Compound 22, 1-(2-(Benzyloxy)-2-(4-methoxyphenyl)ethyl)-1H-imidazole]
FRAP (FRAP antioxidant assay): 0.40 ± 0.05 μmol trolox equiv/g

IC50 (hCA I): 0.00749 µM
IC50 (hCA II): 0.00565 µM
melting point: 104 to 105 °C
Compound: COc1ccc(C(Cn2ccnc2)OCc2ccc(Cl)cc2)cc1 (stereo not drawn) [Compound 23, 1-(2-((4-Chlorobenzyl)oxy)-2-(4-methoxyphenyl)ethyl)-1H-imidazole]
FRAP (FRAP antioxidant assay): 0.45 ± 0.04 μmol trolox equiv/g

IC50 (hCA I): 0.00477 µM
IC50 (hCA II): 0.00966 µM
Compound: COc1ccc(C(Cn2ccnc2)OCc2ccc(C)cc2)cc1 (stereo not drawn) [Compound 24, 1-(2-(4-Methoxyphenyl)-2-((4-methylbenzyl)oxy)ethyl)-1H-imidazole]
FRAP (FRAP antioxidant assay): 0.46 ± 0.06 μmol trolox equiv/g

Compound: N.N.[Cl][Pt][Cl] [cisplatin, reference compound]
IC50 [1]: 88.2 ± 12.1 µM
IC50 ([2]; 24 h incubation): 68.2 ± 3.39 µM
IC50 ([3]; 24 h incubation): 26.8 ± 11 µM
IC50 ([8]; 24 h incubation, MTT): 277.7 ± 1.09 µM

Compound: vitamin E [reference compound]
FRAP (FRAP antioxidant assay): 1.00 ± 0.04 μmol trolox equiv/g
